Test results as given in patent US12419869B2, “Methods of treating multiple sclerosis” (Vanda Pharmaceuticals Inc., priority 2021, dated 2025).

Key:
[1] = Excretion after single oral administration of 14C-ponesimod; assay type: in vivo, human; settings: single oral 14C-ponesimod
Source text: Following a single oral administration of ^14C-ponesimod, 57% to 80% of the dose was recovered in feces (16% as unchanged ponesimod), and 10% to 18% in urine (no unchanged ponesimod).

[2] = Pharmacokinetics in renal impairment; assay type: in vivo, human; settings: moderate or severe renal impairment
Source text: No dose adjustment is necessary in patients with renal impairment. […] The effect of dialysis on the PK of ponesimod has not been studied. Due to the high plasma protein binding (greater than 99%) of ponesimod, dialysis is not expected to alter the total and unbound ponesimod concentration, and no dose adjustments are anticipated based on these considerations.

mammalian cells = assay: Chromosomal aberration in mammalian cells; assay type: cell-based; settings: in vitro
Source text: Ponesimod was negative in a battery of in vitro (Ames, chromosomal aberration in mammalian cells) and in vivo (micronucleus in rat) assays.

S1P receptor 1 = S1P receptor 1 (Homo sapiens, UniProt P21453); assay: S1P receptor binding / activity
S1P receptor 1, sequence (P21453 whole entry): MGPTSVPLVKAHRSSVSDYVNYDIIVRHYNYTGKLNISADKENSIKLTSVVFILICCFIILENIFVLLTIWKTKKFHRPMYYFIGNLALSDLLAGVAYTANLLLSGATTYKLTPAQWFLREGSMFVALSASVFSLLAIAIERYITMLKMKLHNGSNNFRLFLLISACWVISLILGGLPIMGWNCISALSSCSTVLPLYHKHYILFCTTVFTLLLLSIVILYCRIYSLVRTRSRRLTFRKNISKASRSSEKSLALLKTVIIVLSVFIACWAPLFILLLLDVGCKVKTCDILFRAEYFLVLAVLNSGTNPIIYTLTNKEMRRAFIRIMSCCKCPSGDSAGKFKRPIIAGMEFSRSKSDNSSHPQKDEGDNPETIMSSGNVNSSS
Source text: Ponesimod is extensively metabolized prior to excretion in humans, though unchanged ponesimod was the main circulating component in plasma. […] M13 and M12 are respectively about 20% and 6% of total drug-related exposure.

[3] = system: adult subjects with relapsing MS; assay: Fatigue-related symptoms, FSIQ-RMS weekly symptoms score, change from baseline to Week 108; assay type: in vivo, human
Protocol: In some embodiments, the patient-reported outcome questionnaire is the symptom domain of the FSIQ-RMS. The FSIQ-RMS symptom domain (FSIQ-RMS-S) consists of seven items assessing fatigue-related symptoms with a recall period of 24 hours measured on an 11-point numeric rating scale; the standardized symptom domain score ranges from 0 to 100 with a higher score indicating greater fatigue. This domain (i.e., section 1 of the questionnaire) is completed on 7 consecutive days.
The patient-reported outcome questionnaire used for the below Examples is the Fatigue Symptoms and Impact Questionnaire—Relapsing Multiple Sclerosis (FSIQ-RMS). The FSIQ-RMS is an MS specific 20-item PRO measure that comprises 2 domains: one measuring MS symptoms (7 items) and one measuring MS-related impacts (13 items). The 7 symptom items and 13 impact items (in 3 impacts subdomains: physical, cognitive and emotional, and coping) are presented below.
For the MS symptoms domain, the FSIQ-RMS asks about a patient's fatigue-related symptoms of relapsing MS over the past 24 hours while doing routine daily activities (e.g., housework, yard work, shopping, working, etc.) for Items 1-6 or while at rest (e.g., reading a book, watching TV, etc.) for Item 7. Patients are asked to select a response on a scale of 0 to 10 that best describes their experience and are asked to not skip any questions, with no answers being right or wrong.
Secondary efficacy variables and testing strategy: Four secondary efficacy endpoints were analyzed as per the statistical testing strategy outlined in FIG. 1. • Change from baseline to Week 108 in fatigue-related symptoms as measured by the symptoms domain of the FSIQ-RMS patient-reported outcome [Fatigue] • Cumulative number of combined unique active lesions from baseline to Week 108 on brain MRI [CUALs] • Time to first 12-week confirmed disability accumulation (CDA) from baseline to EOS on Expanded Disability Status Scale (EDSS) [12-week CDA] • Time to first 24-week CDA from baseline to EOS on EDSS [24-week CDA]
The FSIQ-RMS symptom domain (FSIQ-RMS-S) consists of seven items assessing fatigue-related symptoms with a recall period of 24 hours measured on an 11-point numeric rating scale; the standardized symptom domain score ranges from 0 to 100 with a higher score indicating greater fatigue. This domain (i.e., section 1 of the questionnaire) is completed on 7 consecutive days.
FSIQ-RMS was completed during the pre-randomization period, at Visits 6, 7, 10, and 12 (Weeks 12, 24, 60, 84), 14 (EOT), and at unscheduled visits due to relapses (R1, R2, etc.) or other unscheduled visits (U1, U2, etc.) as described below. If applicable, FSIQ-RMS was performed at the corresponding visits in the PTOP.
After randomization, the symptoms domain of the FSIQ-RMS (i.e., section 1 of the questionnaire) was completed by the subject at home on a daily basis, starting in the evening of the day of a visit when the FSIQ-RMS was administered (Day 1 of questionnaire administration cycle) and during the 6 subsequent days (i.e., over 7 days in total). Subjects returned the completed FSIQ-RMS diary at the next scheduled visit. On the seventh day, the subject completed the impact domain of the FSIQ-RMS (i.e., section 2 of the questionnaire). If applicable, at the end of the PTOP, the FSIQ-RMS was completed prior to Visit 14A (Week 108), ideally, during the 7 consecutive days preceding the visit.

Solubility in water = assay type: physicochemical
[4] = Animal studies of blood-brain-barrier passage; assay type: in vivo
Source text: Ponesimod is highly bound to plasma proteins (>99%) and is mainly (78.5%) distributed in the plasma fraction of whole blood.

[5] = system: CYP or UGT enzymes, or transporters; assay: In vitro investigations of drug-drug interaction potential; assay type: in vitro ADME; settings: at recommended dose of 20 mg once-daily
[6] = system: Patients (18-55 years) with RMS; assay: No evidence of disease activity (NEDA-3) status, baseline to week 108; assay type: in vivo, human
Protocol: Patients (18-55 years) with RMS (expanded disability status scale scores: 0-5.5) were randomized (1:1) to receive ponesimod (PON) 20 mg or teriflunomide (TER) 14 mg for 108 weeks. MRI assessments were: volume of T2 lesions; mean number of new gadolinium-enhancing (Gd+) T1 lesions and new/enlarging T2 lesions; and absence of active MRI lesions at week 108. NEDA-3 status (absence of confirmed relapse, Gd+T1 lesions and new/enlarging T2 lesions on annual MRIs, and 12-week confirmed disability accumulation) was evaluated from baseline to week 108.

pregnant rabbits = assay: Dose-range finding study in pregnant rabbits, oral; assay type: in vivo, rabbit; settings: 0, 6, 20, or 60 mg/kg/day; at lowest dose tested
Source text: No maternal toxicity was observed.

[7] = Week 108, baseline EDSS <3.5 (title: ≤3.5)
[8] = Week 108, baseline fatigue below the median
[9] = Week 108, no Gd+ T1 lesions at baseline
[10] = Week 108, no prior DMT treatment

Compound: CCC/N=C1\S/C(=C\c2ccc(OC[C@H](O)CO)c(Cl)c2)C(=O)N1c1ccccc1C [Ponesimod, (R)-5-[3-chloro-4-(2,3-dihydroxy-propoxy)-benz[Z]ylidene]-2-([Z]-propylimino)-3-o-tolyl-thiazolidin-4-one]
- Dose recovered in feces as unchanged ponesimod [1]: 16%
- Change in Cmax and AUC vs normal renal function [2]: no significant changes
- Chromosomal aberration in mammalian cells result (mammalian cells): negative
- Binding to S1P receptor 1 (S1P receptor 1): binds with high affinity
- FSIQ-RMS change from baseline to Week 108, mean difference ponesimod vs teriflunomide ([3]; Full Analysis Set): −3.57
- Change from baseline to Week 108 in FSIQ-RMS weekly symptoms score (mean, MMRM) ([3]; Full Analysis Set, increase = worsening): −0.01
- Change in FSIQ-RMS-S total score: Improved (<−6.3), patients ([3]; Week 108, Full Analysis Set): 30.5%
- Change in FSIQ-RMS-S total score: Stable (−6.3 < × < +6.3), patients ([3]; Week 108, Full Analysis Set): 38.4%
- Change in FSIQ-RMS-S total score: Stable or Improved, patients ([3]; Week 108, Full Analysis Set): 68.9%
- Change in FSIQ-RMS-S total score: Worsened (≥6.3), patients ([3]; Week 108, Full Analysis Set): 31.1%
- FSIQ-RMS change: Improved (<−6.3), patients [3, 7]: 30.6%
- FSIQ-RMS change: Stable (−6.3 < × < +6.3), patients [3, 7]: 40.8%
- FSIQ-RMS change: Stable or Improved, patients [3, 7]: 71.4%
- FSIQ-RMS change: Worsened (≥6.3), patients [3, 7]: 28.6%
- FSIQ-RMS change: Improved (<−6.3), patients [3, 8]: 19.1%
- FSIQ-RMS change: Stable (−6.3 < × < +6.3), patients [3, 8]: 45.2%
- FSIQ-RMS change: Stable or Improved, patients [3, 8]: 64.4%
- FSIQ-RMS change: Worsened (≥6.3), patients [3, 8]: 35.6%
- FSIQ-RMS change: Stable (−6.3 < × < +6.3), patients [3, 9]: 37.4%
- FSIQ-RMS change: Stable or Improved, patients [3, 9]: 67.5%
- FSIQ-RMS change: Worsened (≥6.3), patients [3, 9]: 32.5%
- FSIQ-RMS change: Improved (<−6.3), patients [3, 10]: 31.4%
- FSIQ-RMS change: Stable (−6.3 < × < +6.3), patients [3, 10]: 44.0%
- FSIQ-RMS change: Stable or Improved, patients [3, 10]: 75.4%
- FSIQ-RMS change: Worsened (≥6.3), patients [3, 10]: 24.6%
- FSIQ-RMS change: Improved (<−6.3), patients ([3]; Week 108, no prior DMT treatment, listed as ponesimod): 31.4%
- Solubility in water (Solubility in water): practically insoluble or insoluble in water
- Blood-brain-barrier passage [4]: readily crosses the blood-brain-barrier
- Drug-drug interaction potential for CYP or UGT enzymes, or transporters [5]: do not show any clinically relevant drug-drug interaction potential
- Odds ratio PON vs TER for NEDA-3 [6]: 1.70
- Patients achieving NEDA-3 [6]: 28.2%
- Findings in dose-range finding study in pregnant rabbits (pregnant rabbits): an increase in embryofetal death and fetal limb malformation
